The record followed here is US20100093609A1, “PRODRUGS OF TRICIRIBINE AND TRICIRIBINE PHOSPHATE” (priority 2007, published 2010).

Data set [1] can be described thus: Systemic plasma concentrations after duodenal administration to rats. The conditions noted are these: rat, duodenal administration of 3 mg.
Another data set in a line: in vitro. The conditions noted are these: human.
Data set [2] is described as follows: Stability in 100 mM phosphate buffer, pH 6.5. The conditions noted are these: pH 6.5, 37° C., 0-3 hours, LC/MS/MS.

On to `CN1N=C(N)c2cn([C@@H]3O[C@H](COP(=O)(O)O)[C@@H](O)[C@H]3O)c3ncnc1c23` [TCNP, 6-amino-4-methyl-8-(beta.-D-ribofuranosyl)pyrrolo[4,3,2-de]pyrimido[4,5-c]pyridazine 5′ phosphate], for which, in data set [1], the “intestinal absorption / plasma levels (in words)” value is on record as “very little intestinal absorption”. Besides, in data set [1] (FIGS. 5 and 6), the peak plasma levels result is given as “about 1.25 ng/ml”. In addition, the “AUC0-4 hr of the administered compound (parent or intact prodrug)” value in data set [1] (plasma over 4 hours) is recorded as 4.4 ± 0.9 (ng/ml)/hr. In the data set “in vitro”, the IC50 (as a rule, the concentration that inhibits the measured activity by half) at 8 days amounted to 32 µM. In addition, in data set [2], the “stability in buffer (in words)” value was “stable”. Further, the “cytotoxic effects (in words)” value in the data set with HFF cells is listed as “more toxic than TCN”.
